Reference: patent publication US20250263376A1, “(E)-N-CINNAMOYLAMINOALKANOLS WITH MELANOGENESIS INHIBITORY ACTIVITY” (Uniwersytet Jagiellonski, priority 2024, published 2025)

Key:
[1] = target: T1, tyrosinase released from B16-F10 cells (Mus musculus, UniProt P11344); assay: Inhibition of tyrosinase activity released from B16-F10 cells; format: cell-based, murine; conditions: 24 h incubation, α-MSH, L-DOPA 0.5 mM
T1 construct: endogenous in cells; host or cells: B16-F10 murine melanoma cells (alpha-MSH stimulated), Triton X-100 lysate
T1 sequence (P11344 19-533): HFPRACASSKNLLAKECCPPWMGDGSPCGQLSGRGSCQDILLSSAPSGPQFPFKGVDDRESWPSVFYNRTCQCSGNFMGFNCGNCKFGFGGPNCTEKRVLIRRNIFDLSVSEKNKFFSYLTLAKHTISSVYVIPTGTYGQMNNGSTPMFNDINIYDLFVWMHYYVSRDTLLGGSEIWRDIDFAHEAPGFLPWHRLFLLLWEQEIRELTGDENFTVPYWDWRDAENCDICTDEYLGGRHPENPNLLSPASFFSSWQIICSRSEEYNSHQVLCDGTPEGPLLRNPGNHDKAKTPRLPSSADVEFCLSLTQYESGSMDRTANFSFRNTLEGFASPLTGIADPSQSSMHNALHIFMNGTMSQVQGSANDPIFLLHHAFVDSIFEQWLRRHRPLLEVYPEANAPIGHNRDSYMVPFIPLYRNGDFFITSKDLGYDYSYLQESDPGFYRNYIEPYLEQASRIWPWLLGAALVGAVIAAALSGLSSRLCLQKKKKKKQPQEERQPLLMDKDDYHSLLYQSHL
Protocol: Inhibition of Tyrosinase Activity Released from B16-F10 Cells
50,000 cells were placed in each well of a 24-well plate (in F10-Ham medium, 1% FBS). After 24 h of culture, the tested compounds were added in fresh medium (DMEM, 1% FBS), with an additional 5 μM of a-melanocorticotropic hormone (a-MSH) in the medium to induce melanogenesis. Three wells on the plate constituted a control sample without the melanogenesis inducer (a-MSH) and without the tested compounds. After 24 hours of incubation under these conditions, the medium was removed and the cells were washed twice with PBS. 100 μL of lysis buffer composed of 90 μL of 50 mM potassium phosphate buffer, 5 μL of 0.1 mM phenylmethylsulfonyl fluoride and 5 μL of 1% Triton X-100 were added to the wells. The plates were placed at −80° C. for 30 minutes. Cell lysates were then centrifuged for 30 min (4° C., 12,000 rpm), and then 80 μL of the supernatant was transferred to 96-well plates. […] After a 30-minute incubation, the absorbance was measured at 475 nm using a microplate reader. The percentage of inhibition of tyrosinase activity was calculated using the formula: [(AC−AT)/Ac]×100, where AC—is the absorbance of the negative control (from wells in which cells were cultured without the tested compounds), AT—is the absorbance of the sample from wells in which cells were cultured in the presence of the test compound.

[2] = test system: human reconstructed epidermis Episkin; assay: Skin permeation studies in reconstructed human epidermis Episkin; format: in vitro ADME
Protocol: The tested substance A-111 in a macrogol formulation (2% A-111 in the PEG400+PEG800 base) was applied onto the epidermis in an amount of approximately 10 mg/cm^2 (“finite dose application”) using a sterile inoculation loop. The amount applied was weighed accurately. As a control, a macrogol formulation without the test substance was applied onto the epidermis. The finished experimental plate was incubated at 32° C. At specific time intervals, aliquots of the receptor fluid (0.5 mL) were collected for the analysis and replaced with 0.5 mL of fresh receptor fluid. After 24 h of culture, all of the receptor fluid was collected. The examined tissue was washed with cotton buds soaked in methanol. The donor and receptor compartments were washed with methanol, and the epidermis was separated from the inserts and transferred to methanol. Samples were stored at −20° C. until analysis. The content (concentration) of the tested substance A-111 in the receptor fluid and in individual compartments: on the surface of the epidermis, in the epidermis, in the receptor fluid was determined using measurements in a microplate reader at 281 nm on 96-well plates transmitting ultraviolet radiation.
In order to confirm proper bioavailability, studies of the permeation of compound A-111 from a solution in PEG400 were performed in a model of reconstructed human epidermis. […] The tested substance A-111 was applied onto the epidermis in the form of a 2% PEG400 solution in an amount of 15 μL. The finished experimental plate was incubated at 32° C. At specific time intervals, aliquots of the receptor fluid (0.5 mL) were collected for the analysis and replaced with fresh fluid. After 24 h of culture, all of the receptor fluid was collected. The examined tissue was washed with cotton buds soaked in methanol. The donor and receptor compartments were washed with methanol, and the epidermis was separated from the inserts and transferred to methanol. The content (concentration) of the tested substance A-111 in the acceptor fluid and in individual compartments: on the surface of the epidermis, in the epidermis, in the receptor fluid was determined using measurements in a microplate reader at 281 nm on 96-well plates transmitting ultraviolet radiation.
Permeation studies of the A-111 compound from a cosmetic formulation were performed in a model of reconstructed human epidermis. […] 25 μL of the formulation containing the tested compound A-111 was applied to the epidermis. […] The content (concentration) of the tested substance A-111 in the receptor fluid and in individual compartments: on the surface of the epidermis, in the epidermis, in the receptor fluid was determined using measurements in a microplate reader at 281 nm on 96-well plates transmitting ultraviolet radiation.

O=C(/C=C/c1ccc(Cl)cc1)NCCCCCO [Compound A-111, (2E)-3-(4-chlorophenyl)-N-(5-hydroxypentyl)prop-2-enamide]
inhibition of tyrosinase released from B16-F10 cells [1]: inhibit the activity of tyrosinase released from B16-F10 cells | epidermal permeation ([2]; 2% A-111 in macrogol formulation (PEG400+PEG800), about 10 mg/cm^2, 24 h): crosses the epidermal barrier | accumulation in the epidermis ([2]; 2% A-111 in macrogol formulation, 24 h): no accumulation | epidermal permeation ([2]; 2% PEG400 solution, 15 μL, 24 h): crosses the epidermal barrier | epidermal permeation ([2]; released from cosmetic formulation, 25 μL, 24 h): crosses the epidermal barrier
